In patent publication EP1207159A1, “Aromaheterocyclic derivatives as dopamine D4 receptor antagonists” (TAISHO PHARMACEUTICAL CO. LTD, priority 1993, dated 1999):
Counter-ions that a name gives are not always drawn.

What was measured:
human D4.2 receptor = molecular target: T1, human D4.2 receptor (Homo sapiens, UniProt P21917, DEL265-296); experiment: Dopamine D4 receptor binding assay ([3H]spiperone, CHO cell membranes); conditions: 50% inhibition of [3H]spiperone binding; CHO cell membranes expressing human D4.2 receptor; 27°C, 2 hours
T1 construct: expressed in transfected cells; host or cells: CHO cells (membranes)
T1 sequence (P21917 with tags, fused parts or gaps DEL265-296): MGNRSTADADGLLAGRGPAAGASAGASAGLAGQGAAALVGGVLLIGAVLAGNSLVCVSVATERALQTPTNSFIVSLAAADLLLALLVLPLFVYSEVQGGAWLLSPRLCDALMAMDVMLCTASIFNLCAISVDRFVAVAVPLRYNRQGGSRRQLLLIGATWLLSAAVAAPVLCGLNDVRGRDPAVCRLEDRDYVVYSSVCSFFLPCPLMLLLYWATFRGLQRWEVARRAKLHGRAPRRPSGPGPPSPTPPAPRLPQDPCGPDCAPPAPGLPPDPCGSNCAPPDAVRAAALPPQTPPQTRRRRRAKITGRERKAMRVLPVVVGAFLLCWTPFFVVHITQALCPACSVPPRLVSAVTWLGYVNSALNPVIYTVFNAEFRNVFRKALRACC
Description: Chinese hamster ovarium (CHO) cell membranes wherein human D4.2 receptor was expressed were used as a receptor preparation.
[^3H]spiperone was used as [^3H]-labeled ligand.
A binding reaction using the [^3H]-labeled ligand was carried out according to the following method as described in Eur. J. Pharmacol., 233, 173(1993).
Dopamine D4.2 Receptor Binding Assay: The CHO cell membranes wherein human D4.2 receptor was expressed, [^3H]spiperone ([…]) and each test drug were reacted in 50 mM Tris-hydrochloric acid buffer (pH 7.4) containing 5 mM EDTA, 1.5 mM CaCl2, 5 mM KCl and 120 mM NaCl at 27°C for 2 hours.
After completion of the reaction, the reaction solution was filtered by suction through a glass filter (GF/B), and the radioactivity on the filter was measured by a liquid scintillation spectrometer.
The binding under the reaction in the presence of 10 µM haloperidol was defined as non-specific binding of [^3H]spiperone, and the difference between the total binding and the non-specific binding was defined as specific binding.

Dopamine D2 Receptor = molecular target: T2, Dopamine D2 Receptor (Rattus norvegicus, UniProt P61169); experiment: Dopamine D2 receptor binding assay ([3H]raclopride, rat striatum membrane); conditions: 50% inhibition of [3H]raclopride (1 nM) binding, 25°C, an hour
T2 construct: Rat striatum was homogenized in 50 mM Tris-hydrochloric acid buffer (pH 7.4), centrifuged at 48,000 × g; from tissue; host or cells: rat striatum membrane
T2 sequence (P61169 whole entry): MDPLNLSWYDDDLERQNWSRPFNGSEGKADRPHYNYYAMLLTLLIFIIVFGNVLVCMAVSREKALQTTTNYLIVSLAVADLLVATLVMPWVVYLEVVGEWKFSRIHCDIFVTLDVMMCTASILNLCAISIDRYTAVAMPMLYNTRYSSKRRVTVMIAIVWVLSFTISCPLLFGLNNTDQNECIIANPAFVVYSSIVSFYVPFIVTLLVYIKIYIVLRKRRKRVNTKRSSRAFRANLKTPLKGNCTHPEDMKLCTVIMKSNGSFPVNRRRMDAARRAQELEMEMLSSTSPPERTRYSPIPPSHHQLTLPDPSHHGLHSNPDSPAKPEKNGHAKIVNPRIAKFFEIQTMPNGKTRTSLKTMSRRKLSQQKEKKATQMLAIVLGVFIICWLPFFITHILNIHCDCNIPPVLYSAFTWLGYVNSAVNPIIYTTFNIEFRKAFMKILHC
Description: Rat striatum membrane was used as a receptor preparation.
[^3H]raclopride was used as [^3H]-labeled ligand.
A binding reaction using the [^3H]-labeled ligand was carried out according to the following method as described in Mol. J. Pharmacol., 43, 749(1993).
Preparation of Receptor Preparation: Rat striatum was homogenized in 50 mM Tris-hydrochloric acid buffer (pH 7.4), centrifuged at 48,000 × g, and the precipitate was washed once with a Tris-hydrochloric acid buffer. The precipitate was suspended in 50 mM Tris-hydrochloric acid buffer (pH 7.4) containing 120 mM NaCl, 1.5 mM KCl, 2 mM CaCl2 and 1 mM MgCl2 to give a membrane preparation.
Dopamine D2 Receptor Binding Assay: The membrane preparation (0.5 mg of protein/ml), [^3H]raclopride (1 nM) and each test drug were reacted at 25°C for an hour.
After completion of the reaction, the reaction solution was filtered by suction through a glass filter (GF/B), and the radioactivity on the filter was determined by a liquid scintillation spectrometer.
The binding under the reaction in the presence of 10 µM haloperidol was defined as non-specific binding of [^3H]raclopride, and the difference between total binding and non-specific binding was defined as specific binding. […]

IC50 (human D4.2 receptor) [µM]	IC50 (Dopamine D2 Receptor) [µM]	Compound
0.00112	0.089	Fc1ccc(C=C2CCN(CCc3cn[nH]c3-c3ccccc3)CC2)cc1 [Compound A-05]
0.00453	0.521	Fc1ccc(-c2ncncc2CCN2CCC(=Cc3cccc(F)c3)CC2)cc1 [Compound A-11]

Compound	IC50 (human D4.2 receptor) [µM]	IC50 (Dopamine D2 Receptor) [µM]
CSc1ncc(CCN2CCC(=Cc3ccccc3F)CC2)c(-c2ccc(F)cc2)n1 [Compound A-14, 4-(4-fluorophenyl)-5-[2-[4-(2-fluorobenzylidene)piperidin-1-yl]ethyl]-2-methylthiopyrimidine dihydrochloride]	0.0126	0.148
